# Experimental data as given in paper PMC10520499, “Next step in the development of mesoprogestins: the preclinical profile of EC313” (Frontiers in Endocrinology, 2023).
# Marks after values point to notes of the source that are not given here.
# How the values were obtained:
# [1] = tested on: human uterine fibroid xenografts; assay: Human uterine fibroid xenografts in NOD-SCID mice; assay type: in vivo; conditions: Part B; 0.01 mg/kg/day s.c.
# Method: Fibroids/Leiomyoma are one of the clinical target indications for the development of EC313. But, there are no very reliable pre-clinical models known at present. From all experimental approaches, the transplantation of human fibroid tissue into immunodeficient mice s.c. resembles the clinical situation most closely. UPA served as a reference compound. There were two study parts: A and B. Part A is already published ([2]). Human uterine fibroid samples (2x2x2 mm; weighting roughly 8 mg) were transplanted s.c. into NOD-SCID mice 3 weeks after ovariectomy. Simultaneously, the animals were supplemented s.c. with E2-releasing pellets (0.05 mg E2/90 days release). The treatment period over 60 days (5 treatment days a week) started immediately after transplantation. There was a sham control, an E2 control, two EC313-group, one Ulipristal (UA) group, and a combination of UPA+EC313 (Part A). […] The animals were sacrificed after a treatment period of 60 days. Graft weights were the primary endpoint (parts A and B); histological findings including immunostainings of the grafts were used as secondary endpoints (part A).
# [2] = tested on: estrogen-primed endometrium of immature rabbits; assay: McPhail assay, estrogen-primed rabbit endometrium; assay type: in vivo
# Method: The secretory transformation of estrogen-primed endometrium of immature rabbits indicates the strength of the progestagenic action on the endometrium of the chosen test compound. The simultaneous administration of test compounds with progesterone can indicate potential anti-progestagenic actions.
# Female rabbits received daily s.c. injections of 5.0 µg 17β-Estradiol/per animal for 6 days leading to the proliferation of the endometrium. From day 7 to day 13 the animals received doses of vehicle, EC313 (1 to 30 mg/animal/day s.c) or progesterone. On day 14, the animals were sacrificed and the uteri were processed for histological evaluation and the secretory endometrial transformation was rated according to a modified McPhail score (1 – 4).
# The rating scale ranges from 1 (no or very low secretory, transformation, or agonistic activity) to 4 (highest secretory, transformation, or agonistic activity). The McPhail score of 2 (median) was selected for the comparison. The antagonistic activity was measured by the concomitant administration of progesterone ([…] s.c.).
# [3] = molecular target: T1, human androgen receptor (Homo sapiens, UniProt P10275); assay: AR transactivation (CHO, MMTV-LUC); assay type: cell-based
# T1 construct: host or cells: CHO, transient co-transfection
# T1 sequence (P10275 1-920): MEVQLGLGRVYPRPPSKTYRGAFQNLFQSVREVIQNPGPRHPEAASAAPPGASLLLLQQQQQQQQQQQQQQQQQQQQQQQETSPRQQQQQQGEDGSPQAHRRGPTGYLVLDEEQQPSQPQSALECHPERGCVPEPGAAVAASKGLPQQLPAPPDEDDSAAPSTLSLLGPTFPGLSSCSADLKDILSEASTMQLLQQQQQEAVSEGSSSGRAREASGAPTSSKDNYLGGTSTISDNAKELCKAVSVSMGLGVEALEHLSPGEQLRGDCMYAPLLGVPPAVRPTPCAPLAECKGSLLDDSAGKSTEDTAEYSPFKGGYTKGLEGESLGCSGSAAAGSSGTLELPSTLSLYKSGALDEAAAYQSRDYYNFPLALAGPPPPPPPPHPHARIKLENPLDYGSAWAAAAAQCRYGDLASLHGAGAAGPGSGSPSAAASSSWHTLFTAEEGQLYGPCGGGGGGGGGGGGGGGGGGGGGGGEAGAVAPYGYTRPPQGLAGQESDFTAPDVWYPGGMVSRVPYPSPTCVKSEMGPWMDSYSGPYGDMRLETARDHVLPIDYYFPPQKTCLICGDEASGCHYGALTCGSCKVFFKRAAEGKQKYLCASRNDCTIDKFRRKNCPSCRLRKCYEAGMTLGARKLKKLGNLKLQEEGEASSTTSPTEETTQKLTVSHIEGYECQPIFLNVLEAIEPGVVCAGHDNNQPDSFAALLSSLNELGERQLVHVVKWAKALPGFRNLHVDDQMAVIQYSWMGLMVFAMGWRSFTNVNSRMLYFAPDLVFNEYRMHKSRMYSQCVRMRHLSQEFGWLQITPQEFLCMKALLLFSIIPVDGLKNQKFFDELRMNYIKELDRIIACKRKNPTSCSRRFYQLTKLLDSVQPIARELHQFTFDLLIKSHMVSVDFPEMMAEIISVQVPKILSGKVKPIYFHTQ
# Method: The androgen transactivation potential of EC313 was studied in the CHO cell line expressing this steroid protein receptor. The cells were co-transfected with a vector encoding a human full-length androgen receptor (hAR) linked to the reporter vector MMTV/LUC. To produce high protein expression, transient transfections were carried out. […] Agonist and antagonist properties of EC313 toward tested receptor AR were analyzed using luminescence detection.
# To prepare the transfection assay, plasmids were generated and isolated. Plasmid included vector coding sequences for the receptor as well as the reporter gene. Vector pcDNA3.1 coding sequence for the full length of human AR (AR cDNA ORF clone in pcDNA3.1+/C-(K)-DYK) was used as an expression vector for AR. Vector pGL4.36 coding for the androgen-responsive element (MMTV) linked to Firefly luciferase [luc2P/Hygro] was used as a reporter system (pGL4.36-MMTV/LUC).
# Co-transfection was performed on a 96-well plate (16x10^3 cells per well) in culture medium (RPMI w/o phenol red, 10% FBS, L-Glu) w/o antibiotics using transfection reagents following the manufacturer’s instructions. Prior to transfection, plated cells were approximately 70%–80% confluent. After 24h of transfection, medium was removed to a culture medium and cells were treated for the next 24h with the test compounds.
# After incubating the cells for 24h with the tested compounds, the luciferase activity was analyzed.
# [4] = tested on: immature female ovariectomized Wistar rats; assay: Uterus growth test in immature ovariectomized rats; assay type: in vivo, rat; conditions: daily s.c. doses of up to corresponding to 172 mg/kg body weight
# Excerpt: […] The vehicle served as the negative control. After treatment, the animals were sacrificed on day 4, and their vagina and uterine horns were dissected and weighed.
structure (smiles),measurement,setting,value
C[C@]12C[C@H](c3ccc(-c4ccoc4)cc3)C3=C4CCC(=O)C=C4CC[C@H]3[C@@H]1CC[C@]21OCCC1=C(F)F [EC313],anti-fibroid activity at very low dose,[1],demonstrated
same,Quotient between antagonistic and agonistic action,[2]; McPhail score 2 doses,~ 10.0*
same,"maximal effect, McPhail score (average per treatment group)","[2]; agonistic, 1 to 30 mg/animal/day s.c., scale 1-4",≤ 2.5
same,Score 2 for PR-agonistic activity,[2]; dose giving McPhail score 2,~ 1.0 mg/animal/day s.c.
same,Score 2 for PR-antagonistic activity,"[2]; dose giving McPhail score 2, concomitant progesterone (1 g/animal/day [sic] s.c.)",~ 10.0 mg/animal/day s.c.
same,relatively more agonistic than antagonistic effects in comparison with Asoprisnil,"[2]; rabbit, in vivo",approx. 7 times
same,fold higher concentration for the same androgenic effect vs Metribolone,[3]; AR agonism,38 fold
same,EC50,"[3]; AR, three experiments, read-out: EC50, agonistic activity",280 nM
same,antagonistic activity,"[3]; AR, vs 13 nM Metribolone",No antagonistic activity
same,estrogenic / anti-estrogenic activity (uterine horn and vagina weights),[4],neither estrogenic nor anti-estrogenic activity
